Experimental data from publication PMC4791539, “Crystal structure of Anoxybacillus α-amylase provides insights into maltose binding of a new glycosyl hydrolase subclass” (Scientific Reports, 2016).

Target: T1, TASKA (truncated ASKA) (Anoxybacillus ayderensis, UniProt I1VWH9)
T1 construct: signal peptide (1-23) and predicted C-terminal transmembrane region (479-505) removed; 6xHis tags at N- and C-termini (pET-28a); E. coli BL21(DE3); monomer in asymmetric unit
T1 sequence (I1VWH9 24-478): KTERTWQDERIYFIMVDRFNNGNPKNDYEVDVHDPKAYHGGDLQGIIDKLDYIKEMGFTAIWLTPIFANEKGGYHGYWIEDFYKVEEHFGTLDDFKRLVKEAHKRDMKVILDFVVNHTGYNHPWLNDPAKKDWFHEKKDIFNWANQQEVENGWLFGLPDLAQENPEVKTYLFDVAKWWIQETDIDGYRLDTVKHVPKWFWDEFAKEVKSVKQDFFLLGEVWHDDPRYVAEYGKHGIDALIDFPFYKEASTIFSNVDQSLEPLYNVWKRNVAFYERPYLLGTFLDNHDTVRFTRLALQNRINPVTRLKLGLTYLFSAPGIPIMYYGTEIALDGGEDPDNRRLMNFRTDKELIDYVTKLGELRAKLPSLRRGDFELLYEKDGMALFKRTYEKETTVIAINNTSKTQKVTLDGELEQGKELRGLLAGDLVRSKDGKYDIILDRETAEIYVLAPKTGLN
Assay: UPLC-ELSD product analysis
Type: biochemical
Conditions: hydrolysed to glucose and maltose; co-crystal (TASKA-T) shows only maltose

Question: With `OC[C@H]1O[C@H](O[C@H]2[C@H](O)[C@@H](O)[C@@H](O[C@H]3[C@H](O)[C@@H](O)C(O)O[C@@H]3CO)O[C@@H]2CO)[C@H](O)[C@@H](O)[C@@H]1O` (stereo partly shown) [maltotriose] as the molecule, how does the UPLC-ELSD product analysis read?
Answer: glucose and maltose were produced following the hydrolysis of maltotriose
